This is an account of results in article PMC4428790, “In Silico and In Vitro Analysis of Bacoside A Aglycones and Its Derivatives as the Constituents Responsible for the Cognitive Effects of Bacopa monnieri” (PLoS ONE, 2015).

Assay [1] addresses T1, D2S receptor (recombinant human membrane, CHO cells) (Homo sapiens, UniProt P14416).
T1 construct: purchased Perkin Elmer Lot no; 1820984; host or cells: CHO cells
Nature of the assay: radioligand receptor binding assay, [3H]-methylspiperone displacement. The note with it: mean ± S.D.; 0.2 nM [3H]-methylspiperone; assayed up to 100 or 30 μM; read-out: IC50 D2. The source says:
(§1) Recombinant human membrane preparations for M1 (expressed in CHO cells; Lot no. 1706299), 5-HT1A (HEK293 cells; no. 1812363), 5-HT2A (CHO cells; no. 1813092), D1 (L cells; no. 1840059), and D2S (CHO cells; no. 1820984) receptors and MicroScint-O scintillation cocktail were procured from Perkin Elmer (Waltham, MA, USA). [^3H] N-methylscopolamine (NMS), [^3H] 8-OH-DPAT, [^3H] ketanserin, [^3H] SCH 23390 and [^3H] methylspiperone were purchased from American Radiolabeled Chemicals (St. Louis, MO, USA). […] (DTNB) and donepezil hydrochloride were obtained from Sigma-Aldrich (St. Louis, MO, USA). Bacoside A, bacoside A3, bacopaside II, bacopaside X and bacopasaponin C were purchased from Chromadex Inc. (Irvine, CA, USA). Jujubogenin and ebelin lactone were purchased from Shanghai IS Chemical Technology Ltd. (Jinshan, Shanghai, China). Unless stated otherwise, all other reagents of analytical grade were obtained through standard commercial sources.
(§2) The assay was performed according to the methods published previously. […] Pseudojujubogenin and bacogenin A1 were not available for purchase at the time when the work was carried out. All compounds were dissolved in dimethylsulfoxide (DMSO) and the solvent was kept below 1% (v/v) in the final reaction mixture. Briefly, in each well, 100 μl of the respective membrane preparations (μg/well), 50 μl of the respective [^3H]-ligand and 50 μl of the test compounds were added and the total assay reaction volume was made up to 200 μl by adding assay buffer. […] The reaction mixture was incubated for 60 or 120 min at room temperature or 37°C for the respective membranes. The reaction was stopped by rapid filtration onto GF/C filter plates (presoaked in 0.5% polyethyleneimine) using FilterMate (Perkin Elmer) cell harvester and washed with wash buffer (200 μl for 5 times) to remove unbound ligands. The filter plates were dried at 60°C for 15 minutes before the application of Bottom Seal and addition of 50 μl MicroScint-O scintillation cocktail. The top of the plate was then sealed with TopSeal A. Radioactivity (CPM) was counted using TopCount NXT microplate scintillation counter (Perkin-Elmer). The data were analyzed by non-linear regression using Prism Version 5.0 (GraphPad Inc., San Diego CA, USA). The percentage of specific binding of radioligand in the presence of test compounds was calculated using the standard data reduction algorithm: ([B-NSB] / [TB-NSB]) × 100) where B is the binding in the presence of test compounds, NSB is the non-specific binding in the presence of excess reference ligand and TB is the total binding. K i values were calculated from the IC50 values using the Cheng-Prusoff equation [26].

Assay [2] addresses T2, M1 receptor (recombinant human membrane, CHO cells) (Homo sapiens, UniProt P11229).
T2 construct: purchased Perkin Elmer Lot no; 1706299; host or cells: CHO cells
T2 sequence (P11229 1-460): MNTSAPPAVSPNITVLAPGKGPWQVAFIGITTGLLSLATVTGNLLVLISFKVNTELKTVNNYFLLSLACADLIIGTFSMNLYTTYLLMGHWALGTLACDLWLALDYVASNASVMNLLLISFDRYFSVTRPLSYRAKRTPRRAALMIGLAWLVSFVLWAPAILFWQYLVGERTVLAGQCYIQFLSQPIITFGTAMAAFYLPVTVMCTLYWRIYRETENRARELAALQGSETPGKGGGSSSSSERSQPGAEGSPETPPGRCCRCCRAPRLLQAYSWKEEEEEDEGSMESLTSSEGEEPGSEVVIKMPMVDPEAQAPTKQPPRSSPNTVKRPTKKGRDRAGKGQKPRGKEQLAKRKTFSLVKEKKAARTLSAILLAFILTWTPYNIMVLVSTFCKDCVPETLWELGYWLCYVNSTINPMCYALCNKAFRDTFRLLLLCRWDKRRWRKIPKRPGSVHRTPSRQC
The assay can be described thus: radioligand receptor binding assay, [3H]-NMS displacement. The following applies: for IC50: mean ± S.D., 0.1 nM [3H]-NMS, assayed up to 100 or 30 μM.
Excerpt: as §1, §2

Assay [3] has as its target T3, D1 receptor (recombinant human membrane, L cells) (Homo sapiens, UniProt P21728).
T3 construct: purchased Perkin Elmer Lot no; 1840059; host or cells: L cells
Nature of the assay: radioligand receptor binding assay, [3H]-SCH 23390 displacement. The note with it: for IC50: mean ± S.D., 0.2 nM [3H]-SCH 23390, assayed up to 100 or 30 μM.
Excerpt: as §1, §2

The target of assay [4] is T4, 5-HT1A receptor (recombinant human membrane, HEK293 cells) (Homo sapiens, UniProt P08908).
T4 construct: purchased Perkin Elmer Lot no; 1812363; host or cells: HEK293 cells
T4 sequence (P08908 1-422): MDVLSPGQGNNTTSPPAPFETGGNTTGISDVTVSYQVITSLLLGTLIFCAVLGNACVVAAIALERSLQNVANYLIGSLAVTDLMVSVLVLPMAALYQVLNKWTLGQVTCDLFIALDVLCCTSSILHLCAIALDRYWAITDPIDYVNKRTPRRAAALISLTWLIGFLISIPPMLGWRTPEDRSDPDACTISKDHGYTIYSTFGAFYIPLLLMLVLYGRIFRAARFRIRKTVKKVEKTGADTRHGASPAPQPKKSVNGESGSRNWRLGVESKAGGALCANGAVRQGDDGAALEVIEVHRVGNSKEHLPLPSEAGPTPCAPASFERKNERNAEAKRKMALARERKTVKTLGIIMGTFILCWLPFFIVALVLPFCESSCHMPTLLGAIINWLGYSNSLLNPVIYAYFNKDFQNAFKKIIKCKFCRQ
The assay can be described thus: radioligand receptor binding assay, [3H]-8-OH-DPAT displacement. The note with it: mean ± S.D.; 2 nM [3H]-8-OH-DPAT; assayed up to 100 or 30 μM.
Excerpt: as §1, §2

Assay [5] concerns the target T5, 5-HT2A receptor (recombinant human membrane, CHO cells) (Homo sapiens, UniProt P28223).
T5 construct: purchased Perkin Elmer Lot no; 1813092; host or cells: CHO cells
The assay can be described thus: radioligand receptor binding assay, [3H]-ketanserin displacement. The note with it: for IC50: mean ± S.D., 1 nM [3H]-ketanserin, assayed up to 100 or 30 μM.
Excerpt: as §1, §2

In assay [6] the target is M1. Further details: method as in PMID 24979399. The note with it: M1 agonists; cited from earlier work.
Setting [7] is: from IC50 by Cheng-Prusoff equation.

A value given as a limit tells only on which side of the number the result lay.

T3 sequence (P21728 whole entry): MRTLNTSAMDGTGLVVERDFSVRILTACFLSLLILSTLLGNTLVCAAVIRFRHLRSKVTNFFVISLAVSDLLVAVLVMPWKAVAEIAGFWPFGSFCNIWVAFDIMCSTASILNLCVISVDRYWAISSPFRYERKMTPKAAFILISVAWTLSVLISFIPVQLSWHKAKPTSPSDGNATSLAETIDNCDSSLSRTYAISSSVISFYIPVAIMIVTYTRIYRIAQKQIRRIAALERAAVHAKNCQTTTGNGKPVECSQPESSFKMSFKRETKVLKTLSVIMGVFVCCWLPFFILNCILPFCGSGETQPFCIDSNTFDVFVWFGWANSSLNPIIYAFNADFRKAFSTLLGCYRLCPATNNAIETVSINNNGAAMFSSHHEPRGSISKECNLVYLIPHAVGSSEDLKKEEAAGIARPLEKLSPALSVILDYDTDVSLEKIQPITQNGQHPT
T1 sequence (P14416 1-414 isoform P14416-2): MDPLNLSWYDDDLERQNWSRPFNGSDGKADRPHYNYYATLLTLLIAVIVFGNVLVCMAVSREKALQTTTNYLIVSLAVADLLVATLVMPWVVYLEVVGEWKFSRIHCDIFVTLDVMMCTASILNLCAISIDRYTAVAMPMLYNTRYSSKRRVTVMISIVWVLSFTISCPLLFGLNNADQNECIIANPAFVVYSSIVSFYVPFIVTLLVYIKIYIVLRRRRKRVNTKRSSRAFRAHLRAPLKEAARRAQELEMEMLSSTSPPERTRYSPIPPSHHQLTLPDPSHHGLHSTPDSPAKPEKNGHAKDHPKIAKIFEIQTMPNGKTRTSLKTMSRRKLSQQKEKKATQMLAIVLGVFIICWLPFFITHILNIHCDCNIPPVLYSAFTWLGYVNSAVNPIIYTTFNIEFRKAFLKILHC
T5 sequence (P28223 whole entry): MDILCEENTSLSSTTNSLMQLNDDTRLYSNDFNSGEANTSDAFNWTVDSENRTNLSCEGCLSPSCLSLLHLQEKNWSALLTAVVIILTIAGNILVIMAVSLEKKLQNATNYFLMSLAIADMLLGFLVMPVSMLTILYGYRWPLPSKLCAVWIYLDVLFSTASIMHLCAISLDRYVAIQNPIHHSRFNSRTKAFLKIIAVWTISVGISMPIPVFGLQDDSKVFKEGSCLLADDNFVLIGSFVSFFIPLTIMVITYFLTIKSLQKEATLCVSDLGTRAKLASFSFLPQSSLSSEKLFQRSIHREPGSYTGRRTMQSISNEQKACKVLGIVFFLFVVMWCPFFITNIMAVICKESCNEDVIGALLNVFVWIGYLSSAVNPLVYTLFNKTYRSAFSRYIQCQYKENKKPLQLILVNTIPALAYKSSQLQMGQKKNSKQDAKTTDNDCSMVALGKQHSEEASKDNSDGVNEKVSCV

A word on the IC50: it is the concentration at which inhibition is half-maximal. As to `CC(C)=CC1CC(C)(O)C2C3CCC4C5(C)CCC(O)C(C)(C)C5CCC4(C)C34COC2(C4)O1` (stereo not shown) [Jujubogenin, jujubogenin], the IC50 in assay [1], in assay [2], in assay [3], in assay [4] and in assay [5] was more than 30 µM each time.
Consider `CC(C)=C[C@H]1C[C@](C)(O)[C@@H]2[C@H]3CC[C@@H]4[C@@]5(C)CC[C@H](O[C@@H]6O[C@H](CO)[C@@H](O)[C@H](O[C@@H]7O[C@H](CO)[C@@H](O)[C@H](O)[C@H]7O)[C@H]6O[C@@H]6O[C@@H](CO)[C@H](O)[C@H]6O)C(C)(C)[C@@H]5CC[C@@]4(C)[C@@]34CO[C@@]2(C4)O1` [Bacoside A3, bacoside A3], for which the IC50 in assay [1], in assay [2], in assay [3], in assay [4] and in assay [5] was more than 100 µM in each case.
One may read the Ki as a dissociation constant, usually derived from enzyme kinetics or from competition with a known ligand. Turning to `CC(C)=C[C@H]1C[C@](C)(O)[C@@H]2[C@H]3CC[C@@H]4[C@@]5(C)CC[C@H](O[C@@H]6OC[C@H](O)[C@H](O[C@@H]7O[C@H](CO)[C@@H](O)[C@H](O)[C@H]7O)[C@H]6O[C@@H]6O[C@@H](CO)[C@H](O)[C@H]6O)C(C)(C)[C@@H]5CC[C@@]4(C)[C@@]34CO[C@@]2(C4)O1` [Bacopaside X, bacopaside X], the IC50 in assay [1] was more than 100 µM; in assay [2], more than 100 µM; in assay [3] it was 19.5 ± 3.07 µM; in assay [4], more than 100 µM; in assay [5], more than 100 µM. Besides, the Ki in assay [3] (setting [7]) was 9.06 µM.
For `CC(=O)OCC[N+](C)(C)C` [acetylcholine], the Ki in assay [6] was 59 µM.
`CC(C)=CC=CC(C)=CC1CCC2C3(C)CCC(O)C(C)(C)C3CCC2(C)C12COC(=O)C2` (stereo not shown) [Ebelin Lactone, ebelin lactone]: the IC50 in assay [1] is more than 30 µM; in assay [2] it was 0.8 ± 0.19 µM; in assay [3], more than 30 µM; in assay [4], more than 30 µM; in assay [5], 14.5 ± 4.98 µM. Further, the results for the Ki in assay [2] (setting [7]) and in assay [5] (setting [7]) were 0.45 µM and 4.21 µM, respectively.
As for `CC(C)=C[C@@H]1CO[C@]23C[C@]4(CO2)[C@H](CC[C@@H]2[C@@]5(C)CC[C@H](O[C@@H]6OC[C@H](O)[C@H](O[C@@H]7O[C@H](CO)[C@@H](O)[C@H](O)[C@H]7O)[C@H]6O[C@@H]6O[C@@H](CO)[C@H](O)[C@H]6O)C(C)(C)[C@@H]5CC[C@]24C)[C@H]3[C@@]1(C)O` [Bacopasaponin C, bacopasaponin C], the IC50 in assay [1], in assay [2], in assay [3], in assay [4] and in assay [5] was more than 100 µM in each case.
As for `CC(C)=CC1COC23CC4(CO2)C(CCC2C5(C)CCC(OC6OC(CO)C(O)C(OC7OC(CO)C(O)C(O)C7O)C6OC6OC(CO)C(O)C6O)C(C)(C)C5CCC24C)C3C1(C)O` (stereo not shown) [Bacopaside II, bacopaside II], the IC50 in assay [1], in assay [2], in assay [3], in assay [4] and in assay [5] was more than 30 µM throughout.
